Tested on: microbial load on the hands
Test: hand disinfectant experiment according to EN 1500
Format: in vivo
Conditions: EN 1500, six samples per product; reference 60% 2-propanol (vol/vol)
Source text: The state of the art for hand disinfectants is described by the test methods, in which an agent is examined in regard to its efficiency. Currently, all agents, which are to be approved for hygienic hand disinfection have to be examined according to standard EN1500. The EN 1500 uses as a microbicidal reference substance 60% 2-propanol (vol/vol) in water. […] In these cases, the effectiveness of alcoholic hand disinfectants with or without the addition of quaternary ammonium compounds is more or less the same. It has also been known that products are possible, which contain as an active agent about 4% of a quaternary ammonium compound or a guanidine and contain, apart from this compound, solubilizers like propylene glycol, butylene glycol and other polyalcohols, so that the products have a degreasing effect on the skin. Unfortunately, all of these products were effective only according to the new standards EN 1499, hand decontamination, which have to meet less stringent requirements than the EN 1500. Agents, which only have to meet the requirements of the EN1499 have to be better than soap in a comparative test. Whereas for passing the EN 1500, in general, a microbial reduction of 4.5 log increments (i.e., a 4.5 log reduction) is required, passing the EN 1499 in general requires 3 log increments (i.e., a 3 log reduction). This is only 3% of the reduction required by the EN 1500. […]

## CC(C)O [60% 2-propanol (vol/vol), 2-propanol]
  Reduction factor: 4.1-4.6
